Data as given in ChEMBL document CHEMBL1177823, “7',8'-Dihydroobolactone, a typanocidal alpha-pyrone from the rainforest tree Cryptocarya obovata” (Bioorg Med Chem Lett, 2010).

Columns and labels:
[1] = Selectivity index, ratio of IC50 for HEK293 cells to IC50 for Trypanosoma brucei brucei; assay type: toxicity, cell-based; conditions: human, HEK293 cells versus Trypanosoma brucei brucei; read-out: Selectivity Index
A549 = assay: Cytotoxicity against human A549 cells after 72 hrs by Alamar blue assay; assay type: functional, cell-based; conditions: A549, 72 h
HeLa = assay: Cytotoxicity against human HeLa cells after 72 hrs by Alamar blue assay; assay type: functional, cell-based
[2] = test system: Trypanosoma brucei brucei; assay: Antitrypanosomal activity against Trypanosoma brucei brucei; assay type: functional, organism-based
HEK293 = assay: Cytotoxicity against […] cells after 72 hrs by Alamar blue assay; assay type: cell-based; conditions: Homo sapiens, HEK293, 72 h
MCF7 = assay: Cytotoxicity against human MCF7 cells after 72 hrs by Alamar blue assay; assay type: functional, cell-based; conditions: MCF7, 72 h
[3] = Cytotoxicity against […] cells at 70 uM after 72 hrs by Alamar blue assay; assay type: cell-based; conditions: human, HEK293 cells; read-out: INH
[4] = test system: Trypanosoma brucei brucei; assay: Antitrypanosomal activity against Trypanosoma brucei brucei at 167 uM; assay type: functional

Question: What does the source list for O=C1C=C(CCc2ccccc2)O[C@H](C[C@H]2CC=CC(=O)O2)C1?
Answer: selectivity ratio [1]: 7.4; IC50 (A549): 78 µM; IC50 (HeLa): 43 µM; IC50 [2]: 2.8 µM; IC50 (HEK293): 20.4 µM

Question: With N=C(N)c1ccc(/N=N/Nc2ccc(C(=N)N)cc2)cc1 [DIMINAZENE] as the compound, how does the IC50 [2] read?
Answer: The IC50 was 0.025 µM.

Question: What about the IC50 (HEK293) of the same compound?
Answer: Its IC50 is greater than 80 µM.

Question: For O=C1C=C(/C=C/c2ccccc2)O[C@H](C[C@H]2CC=CC(=O)O2)C1 [OBOLACTONE], which IC50 (MCF7) is on record?
Answer: Its IC50 is 32 µM.

Question: And the selectivity ratio [1]?
Answer: Its selectivity ratio is 2.5.

Question: What about the IC50 (A549) of the same compound?
Answer: Its IC50 is 43 µM.

Question: What about the IC50 (HeLa) of the same compound?
Answer: The IC50 was 24 µM.

Question: And the IC50 [2]?
Answer: The IC50 was 5.3 µM.

Question: What about the IC50 (HEK293) of the same compound?
Answer: Its IC50 is 13.2 µM.

Question: Which IC50 [2] does the source give for N=C(N)c1ccc(OCCCCCOc2ccc(C(=N)N)cc2)cc1 [PENTAMIDINE] here?
Answer: Its IC50 is 0.007 µM.

Question: And the cytotoxicity at 72 h, 70 µM [3]?
Answer: The cytotoxicity at 72 h, 70 µM was 58.3%.

Question: For O=c1ccc2cc3ccoc3cc2o1 [PSORALEN], which inhibition at 167 µM [4] is on record?
Answer: The inhibition at 167 µM was 50.3%.

Question: What about the IC50 (HEK293) of the same compound?
Answer: Its IC50 is greater than 167 µM.

Question: Which results are given for COc1ccc(C[C@H](N)C(=O)N[C@H]2[C@@H](O)[C@H](n3cnc4c(N(C)C)ncnc43)O[C@@H]2CO)cc1 [PUROMYCIN]?
Answer: IC50 [2]: 0.037 µM; IC50 (HEK293): 0.42 µM
